Activity calls are given as the source filed them. No cut-off for these calls is given here.
Columns and labels:
[1] = tested on: RAW264.7; assay: Cytotoxicity against mouse RAW264.7 cells assessed as cell viability at 0.001 to 50 uM after 48 hrs by MTT assay; assay type: cell-based; conditions: raw264.7, 48 h
[2] = tested on: RAW264.7; assay: Stimulation of lysosomal activity in mouse RAW264.7 cells after 24 hrs by acridine orange based/immunomodulatory activity assay; assay type: functional, cell-based
[3] = tested on: RAW264.7; assay: Stimulation of lysosomal activity in mouse RAW264.7 cells at 10 uM after 24 hrs by acridine orange based/immunomodulatory activity assay; assay type: functional, cell-based
[4] = tested on: RAW264.7; assay: Stimulation of lysosomal activity in mouse RAW264.7 cells at 0.001 to 1 uM after 24 hrs by acridine orange based/immunomodulatory activity assay; assay type: functional, cell-based
[5] = tested on: RAW264.7; assay: Stimulation of lysosomal activity in mouse RAW264.7 cells at 0.1 uM after 24 hrs by acridine orange based/immunomodulatory activity assay; assay type: functional
[6] = tested on: RAW264.7; assay: Induction of reactive oxygen species generation in mouse RAW264.7 cells at 0.01 to 10 uM after 24 hrs by DCF-DA dye-based/immunomodulatory activity assay; assay type: functional, cell-based
[7] = tested on: RAW264.7; assay: Induction of reactive oxygen species generation in mouse RAW264.7 cells at 0.01 uM after 24 hrs by DCF-DA dye-based/immunomodulatory activity assay relative to control; assay type: functional
[8] = tested on: RAW264.7; assay: Induction of NO production in mouse RAW264.7 cells after 24 hrs by FA-OMe fluorescent probe based/immunomodulatory activity assay; assay type: functional, cell-based
[9] = tested on: RAW264.7; assay: Induction of NO production in mouse RAW264.7 cells at 0.01 uM after 24 hrs by FA-OMe fluorescent probe based/immunomodulatory activity assay; assay type: functional
[10] = tested on: RAW264.7; assay: Induction of NO production in mouse RAW264.7 cells at 0.1 uM after 24 hrs by FA-OMe fluorescent probe based/immunomodulatory activity assay; assay type: functional
[11] = tested on: RAW264.7; assay: Stimulation of lysosomal activity in mouse RAW264.7 cells at 0.1 uM after 24 hrs by acridine orange based/immunomodulatory activity assay relative to 1 ug/ml LPS stimulation; assay type: functional, cell-based

SMILES	Activity [1]	Activity [2]	Activity [3]	Activity [4]	Activity [5]	Activity [6]	fold change (FC) [7]	Activity [8]	Activity [9]	Activity [10]	Activity [11]
CC(C)CC(=O)C[C@@H](C)[C@H]1CC[C@H]2C3=C[C@H]4OC[C@H]5O[C@@H](O[C@H]6[C@@H](OC[C@H](O)[C@@H]6O)O[C@H]6[C@H](O[C@H]7CC[C@@](C)([C@@H]4C7)[C@H]3CC[C@]12C)O[C@H](C(=O)O)[C@@H](O)[C@@H]6O)[C@H](O)[C@@H](O)[C@H]5O	Non-toxic	Dose-dependent effect	inactive	Active	50%	Active	2	Dose-dependent effect	15%	15%	Active
CC(C)CC(=O)C[C@@H](C)[C@H]1CC[C@H]2C3=C[C@H]4OC[C@H]5O[C@@H](O[C@H]6[C@@H](OC[C@H](O)[C@@H]6O)O[C@H]6[C@H](O[C@H]7CC[C@@](C)([C@@H]4C7)[C@H]3CC[C@]12C)O[C@H](C(=O)O)[C@@H](O)[C@@H]6O)[C@H](O)[C@@H](O)[C@@H]5O	Non-toxic	–	–	–	–	inactive	–	inactive	–	–	–
